In brackets after ≈: the same amount, converted by molar mass. Like-named read-outs stand apart in the source and are kept apart here.
Experiments:
[1] = system: Staphylococcus epidermidis (ATCC 35984, also known as RP62A or MRSE); assay: MIC determination on S. epidermidis (EUCAST, OD600 after overnight growth in MHB); type: cell-based
Method: The Minimal Inhibitory Concentration (MIC) of molecules 2329, 2348, 2412, 2452 and 2461 was determined on Staphylococcus epidermidis (ATCC 35984, also known as RP62A) according to EUCAST (European Committee on Antimicrobial Susceptibility Testing) recommendations.
Briefly, a single colony grown on a Tryptic Soy Agar (TSA) plate was resuspended and cultured in Tryptic Soy Broth (TSB) overnight (O/N) in aerobic conditions (37° C. with 220 rpm shaking), next day a 1:50 inoculum in Mueller-Hinton broth (MHB) was incubated in aerobic conditions for 3 hr and an inoculum of 1:100 dilution, corresponding to 3×10^5 CFU/ml, was incubated in presence or absence of different concentrations of the molecules in 1% DMSO (vehicle). After O/N growth the OD of each culture was measured at 600 nm in a spectrophotometer (OD600). The MIC represents the concentration at which there is no visible growth of bacteria, i.e. ΔOD at 600 nm equal to zero (blank is the medium alone).
The Minimal Inhibitory Concentration (MIC) of pyrazolopyrimidine molecules 2539, 2544, 2666,2676, 2693, 2783, 2784 and 2782 and of purine molecules 2498, 2511, 2525, 2527, 2833, and 2840 was determined on S. epidermidis (ATCC 35984, also known as RP62A or MRSE) according to EUCAST (European Committee on Antimicrobial Susceptibility Testing) recommendations.
Briefly, a single colony grown on an agar plate was resuspended and cultured in Triptic Soy Broth (TSB) medium overnight (O/N) in aerobic conditions (37° C. with 220 rpm shaking), next day a 1:50 inoculum in Mueller-Hinton broth (MHB) was incubated in aerobic conditions for 3 hr (OD=0.08-0.1) and an inoculum of 1:300 dilution, corresponding to 3×10^5 CFU/ml, was incubated in presence or absence of different concentrations of each of the molecules in 1% DMSO (vehicle). After O/N growth the OD of each culture was measured at 600 nm (600) in a spectrophotometer (Victor 3-Perkin Elmer). The MIC represents the concentration at which there is no visible growth of bacteria, i.e. ΔOD at 600 nm equal to zero (where ΔOD is the difference between the OD with the molecule and the OD of the blank, the medium alone).
(§1) Molecule 36z has been tested for its potential antibacterial activity by determining its minimal inhibitory concentration (MIC) according to protocols recommended by EUCAST to assess the efficacy of antibiotics against bacterial strains. In brief MIC in MRSA (ATCC BAA-1556) or in Xen29 (Perkin Elmer-ATCC 12600) for 36z (molecule 25 in WO2009/034386) was determined by culturing a single colony of MRSA or Xen29 in brain heart infusion (BHI) broth overnight (O/N) in aerobic conditions (37° C. with 220 rpm shaking), while MIC for MRSE (ATCC 35984) was determined by culturing MRSE in TSB O/N. Next day a 1:100 inoculum in Mueller-Hinton broth (MHB) is incubated in aerobic conditions for 3 hr (OD=0.08-0.1) and an inoculum of 1:300 dilution, corresponding to 3×10^5 CFU/ml, is incubated in presence or absence of different concentrations of the tested molecules in 1% DMSO. After O/N growth the OD of each culture was measured at 600 nm (OD600) in a spectrophotometer (Victor 3-Perkin Elmer). The MIC represents the concentration at which there is no visible growth of bacteria, i.e. ΔOD at 600 nm equal to zero (blank is the medium alone). No antibacterial activity was found against MRSA (ATCC BAA-1556), Xen29 (Perkin Elmer-ATCC 12600 or MRSE (ATCC 35984) strains when the molecule was used at concentrations up to 200 μM.

[2] = system: S. aureus Xen29 (ATCC 12600); assay: MIC determination on bioluminescent S. aureus Xen29; type: cell-based, Staphylococcus aureus; details: for MIC: Staphylococcus aureus; for antibacterial activity / inhibition of Xen29 growth (in words): MHB medium
Method: (§2) Further experiments are conducted using different strains of S. aureus, as clinically relevant Gram-positive bacterial strains: S. aureus ATCC 25904, methicillin-resistant S. aureus (MRSA) ATCC BAA-1556, Glycopeptide intermediate-resistant (GISA) S. aureus Mu-50 (ATCC 700695) in order to determine the Minimal Inhibitory Concentration (MIC) which is the minimal concentration required to prevent bacterial growth. The bioluminescent strain S. aureus Xen29 (ATCC 12600) was also used. This strain is derived from the parental strain S. aureus ATCC 12600, a pleural fluid isolate, which is also designated as NCTC8532.
(§3) A single colony selected from the different strains of S. aureus is resuspended and cultured in brain heart infusion (BHI) broth overnight (O/N) in aerobic conditions (37° C. with 220 rpm shaking), next day a 1:100 inoculum in Mueller-Hinton broth (MHB) is incubated in aerobic conditions for 3 hr (=OD0.08-0.1) and an inoculum of 1:300 dilution, corresponding to 3×10^5 CFU/ml, is incubated in presence or absence of different concentrations of the tested molecules in 1% DMSO. After O/N growth the OD of each culture was measured at 600 nm (OD600) in a spectrophotometer (Victor 3-Perkin Elmer). The MIC represents the concentration at which there is no visible growth of bacteria, i.e. ΔOD at 600 nm equal to zero (blank is the medium alone). […] The MIC of molecule 2329 against Glycopeptide intermediate-resistant (GISA) S. aureus Mu-50 (ATCC 700695) is in between 25 and 30 μM, while it is above 50 μM for molecules 2348, 2412, and 2452.
(§4) Further experiments are conducted using different strains of S. aureus, as clinically relevant Gram-positive bacterial strains: methicillin-resistant S. aureus (MRSA) ATCC BAA-1556 and S. aureus Xen29 (Perkin Elmer ATCC 12600).
(§5) To determine the MIC of the above mentioned molecules in MRSA or in Xen29, a single colony of MRSA or Xen29 is resuspended and cultured in brain heart infusion (BHI) broth overnight (O/N) in aerobic conditions (37° C. with 220 rpm shaking), next day a 1:100 inoculum in Mueller-Hinton broth (MHB) is incubated in aerobic conditions for 3 hr (OD=0.08-0.1) and an inoculum of 1:300 dilution, corresponding to 3×10^5 CFU/ml, is incubated in presence or absence of different concentrations of the tested molecules in 1% DMSO. After O/N growth the OD of each culture was measured at 600 nm (OD600) in a spectrophotometer (Victor 3-Perkin Elmer). The MIC represents the concentration at which there is no visible growth of bacteria, i.e. ΔOD at 600 nm equal to zero (blank is the medium alone).
as §1

[3] = system: methicillin-resistant S. aureus (MRSA) ATCC BAA-1556; assay: MIC determination on methicillin-resistant S. aureus; type: cell-based, Staphylococcus aureus; details: for MIC: Staphylococcus aureus; for antibacterial activity against MRSA (in words): MHB medium
Method: as §2, §3, §4, §5, §1

[4] = Staphylococcus epidermidis, MHB medium, tested up to 100 μM, read-out: MIC MRSE
[5] = Staphylococcus epidermidis, read-out: MIC MRSE
[6] = MHB medium, tested up to 100 μM, hydrochloride, read-out: MIC MRSE

`CCCCOc1nc(NC2CC2)c2ncn(Cc3c(F)ccc(C)c3F)c2n1` [38z″, 2-Butoxy-N-cyclopropyl-9-(2,6-difluoro-3-methylbenzyl)-9H-purin-6-amine, reference compound] was tested, and the MIC ([1]; Staphylococcus epidermidis, read-out: MIC MRSE (comparison molecules of WO2009/034386)) was > 200 µM, the MIC ([2]; ATCC12600, read-out: MIC Xen29 (comparison molecules of WO2009/034386)) was > 200 µM and the MIC ([3]; read-out: MIC MRSA (comparison molecules of WO2009/034386)) was > 200 µM.
In the case of `CSc1nc(N[C@@H]2C[C@H]2c2ccc(F)c(F)c2)c2ncn(C)c2n1` [Molecule 2498, N-((1R,2S)-2-(3,4-difluorophenyl)cyclopropyl)-9-methyl-2-(methylthio)-9H-purin-6-amine], the “antibacterial activity / inhibition of MRSE growth (in words)” value ([1]; MHB medium) is reported as “able to inhibit MRSE growth”, the MIC [1, 4] is reported as 60 µM (≈ 20.8 µg/mL) and the “antibacterial activity / inhibition of Xen29 growth (in words)” value [2] is reported as “able to inhibit”. The MIC ([2]; ATCC12600, read-out: MIC Xen29) was 30 µM (≈ 10.4 µg/mL), the “antibacterial activity against MRSA (in words)” value [3] was “active” and the MIC ([3]; read-out: MIC MRSA) was 30 µM (≈ 10.4 µg/mL).
`CCSc1nc(N[C@@H]2C[C@H]2c2ccc(F)c(F)c2)c2ncn(C)c2n1` [Molecule 2525, N-((1R,2S)-2-(3,4-difluorophenyl)cyclopropyl)-2-(ethylthio)-9-methyl-9H-purin-6-amine] was tested, and the “antibacterial activity / inhibition of MRSE growth (in words)” value ([1]; MHB medium) was “able to inhibit MRSE growth”, the MIC [1, 4] was 40 µM (≈ 14.5 µg/mL) and the “antibacterial activity / inhibition of Xen29 growth (in words)” value [2] was “able to inhibit”. The MIC ([2]; ATCC12600, read-out: MIC Xen29) was 30 µM (≈ 10.8 µg/mL), the “antibacterial activity against MRSA (in words)” value [3] was “active” and the MIC ([3]; read-out: MIC MRSA) was 25 µM (≈ 9.04 µg/mL).
With `CCSc1nc(N[C@@H]2C[C@H]2c2ccc(F)c(F)c2)c2ncn(CC)c2n1` [Molecule 2527, N-((1R,2S)-2-(3,4-difluorophenyl)cyclopropyl)-9-ethyl-2-(ethylthio)-9H-purin-6-amine] the “antibacterial activity / inhibition of MRSE growth (in words)” value ([1]; MHB medium) was “able to inhibit MRSE growth”, the MIC [1, 4] was 25 µM (≈ 9.39 µg/mL) and the “antibacterial activity / inhibition of Xen29 growth (in words)” value [2] was “able to inhibit”. For the same compound, the MIC ([2]; ATCC12600, read-out: MIC Xen29) was 30 µM (≈ 11.3 µg/mL), the “antibacterial activity against MRSA (in words)” value [3] was “active” and the MIC ([3]; read-out: MIC MRSA) was 25 µM (≈ 9.39 µg/mL).
In the case of `CSc1nc(N[C@@H]2C[C@H]2c2ccc(F)c(F)c2)c2cnn(C)c2n1` [Molecule 2539, N-((1R,2S)-2-(3,4-difluorophenyl)cyclopropyl)-1-methyl-6-(methylthio)-1H-pyrazolo[3,4-d]pyrimidin-4-amine], the “antibacterial activity / inhibition of MRSE growth (in words)” value ([1]; MHB medium) is reported as “able to inhibit MRSE growth”, the MIC [1, 4] is reported as 50 µM (≈ 17.4 µg/mL) and the “antibacterial activity / inhibition of Xen29 growth (in words)” value [2] is reported as “able to inhibit”. For the same compound, the MIC ([2]; ATCC12600, read-out: MIC Xen29) was 30 µM (≈ 10.4 µg/mL), the “antibacterial activity against MRSA (in words)” value [3] was “active” and the MIC ([3]; read-out: MIC MRSA) was 25 µM (≈ 8.68 µg/mL).
For `CCn1ncc2c(N[C@@H]3C[C@H]3c3ccc(F)c(F)c3)nc(SC)nc21` [Molecule 2544, N-((1R,2S)-2-(3,4-difluorophenyl)cyclopropyl)-1-ethyl-6-(methylthio)-1H-pyrazolo[3,4-d]pyrimidin-4-amine], the “antibacterial activity / inhibition of MRSE growth (in words)” value ([1]; MHB medium) was “able to inhibit MRSE growth”, the MIC [1, 4] was 80 µM (≈ 28.9 µg/mL) and the “antibacterial activity / inhibition of Xen29 growth (in words)” value [2] was “able to inhibit”. For the same compound, the MIC ([2]; ATCC12600, read-out: MIC Xen29) was 50 µM (≈ 18.1 µg/mL), the “antibacterial activity against MRSA (in words)” value [3] was “active” and the MIC ([3]; read-out: MIC MRSA) was 50 µM (≈ 18.1 µg/mL).
With `CSc1nc(N[C@@H]2C[C@H]2c2ccc(F)c(F)c2)c2cnn(C(C)C)c2n1.Cl` [Molecule 2676, N-((1R,2S)-2-(3,4-difluorophenyl)cyclopropyl)-1-isopropyl-6-(methylthio)-1H-pyrazolo[3,4-d]pyrimidin-4-amine hydrochloride] the “antibacterial activity / inhibition of MRSE growth (in words)” value ([1]; MHB medium) was “able to inhibit MRSE growth”, the MIC [1, 5] was 50 µM and the MIC ([2]; ATCC12600, read-out: MIC Xen29) was > 100 µM. The “antibacterial activity against MRSA (in words)” value [3] was “active” and the MIC ([3]; read-out: MIC MRSA) was 20 µM.
For `CCCSc1nc(N[C@@H]2C[C@H]2c2ccc(F)c(F)c2)c2cnn(C)c2n1.Cl` [Molecule 2782, N-((1R,2S)-2-(3,4-difluorophenyl)cyclopropyl)-6-(propylthio)-1-methyl-1H-pyrazolo[3,4-d]pyrimidin-4-amine hydrochloride], the MIC [1, 6] was >100 µM, the MIC [1, 5] was > 100 µM and the “antibacterial activity against MRSA (in words)” value [3] was “active”. It also gave an MIC ([3]; read-out: MIC MRSA) of 25 µM.
For `CCSc1nc(N[C@@H]2C[C@H]2c2ccc(F)c(F)c2)c2cnn(CC)c2n1.Cl` [Molecule 2783, N-((1R,2S)-2-(3,4-difluorophenyl)cyclopropyl)-6-(ethylthio)-1-ethyl-1H-pyrazolo[3,4-d]pyrimidin-4-amine hydrochloride], the MIC [1, 6] was >100 µM, the MIC [1, 5] was > 100 µM and the “antibacterial activity against MRSA (in words)” value [3] was “active”. For the same compound, the MIC ([3]; read-out: MIC MRSA) was 25 µM.
In the case of `CCCSc1nc(N[C@@H]2C[C@H]2c2ccc(F)c(F)c2)c2cnn(CC)c2n1.Cl` [Molecule 2784, N-((1R,2S)-2-(3,4-difluorophenyl)cyclopropyl)-6-(propylthio)-1-ethyl-1H-pyrazolo[3,4-d]pyrimidin-4-amine hydrochloride], the MIC [1, 6] is reported as >100 µM, the MIC [1, 5] is reported as > 100 µM and the “antibacterial activity against MRSA (in words)” value [3] is reported as “active”. The MIC ([3]; read-out: MIC MRSA) was 50 µM.
In the case of `CCCCSc1nc(N[C@@H]2C[C@H]2c2ccc(F)c(F)c2)c2ncn(CC)c2n1` [Molecule 2840, 2-(butylthio)-N-((1R,2S)-2-(3,4-difluorophenyl)cyclopropyl)-9-ethyl-9H-purin-6-amine], the MIC ([1]; MHB medium, tested up to 100 μM, read-out: MIC MRSE) is reported as >100 µM, the MIC [1, 4] is reported as > 100 µM and the “antibacterial activity against MRSA (in words)” value [3] is reported as “active”. It also gave an MIC ([3]; read-out: MIC MRSA) of 50 µM (≈ 20.2 µg/mL).
